{"source": "patent US20050118222A1", "about": "“Product to combat ticks and the process for the product's preparation” (priority 2002, published 2005)", "origin": "cited, not measured here", "key": {"[1]": {"settings": "in vivo"}, "[2]": {"tested_on": "manure-processing insect and coleopterous flora in the soil"}}, "data": [{"substance": "(4″R)-4″-epi(Acetylamino)-4″-deoxyavermectin B1 [Eprinomectin]", "values": [{"measurement": "elimination through dung", "setting": "[1]", "result": 85, "unit": "%"}, {"measurement": "effect on manure-processing insect and coleopterous flora in the soil", "setting": "[2]", "result": "does not affect"}, {"measurement": "applied drug eliminated through the milk", "setting": "in vivo", "result": 0.1, "unit": "%"}, {"measurement": "elimination through the milk, times less compared to ivermectin or moxidectin", "setting": "versus ivermectin or moxidectin", "result": 50, "unit": "times"}]}]}
